One data set concerns Tbb bloodstream form. As to conditions: cited from earlier work.
The subject of another data set is Trypanosoma brucei. The note with it: read-out: Anti-trypanosomal IC50; cited from earlier work.
The test system of data set [1] is Trypanosoma brucei brucei (Tbb, strain 427) bloodstream form. Put plainly: Anti-trypanosomal assay (alamar blue, 72 h) on Tbb bloodstream form. As to conditions: for IC50: Trypanosoma brucei, Tbb bloodstream form. It is filed as cell-based. As to the method: Trypanosoma brucei brucei, although not infecting humans because of its susceptibility to the innate immune system, has been used as a good predictive model in a first screening for the identification of anti-trypanosomal compounds [52, 53]. Bloodstream forms of this parasite (Tbb, strain 427) were grown in HMI-9 medium (IMDM-Gibco-Thermo Fisher Scientific, Merelbeke, Belgium-supplemented with 10% heat-inactivated fetal bovine serum (Sigma-Aldrich, Bornem, Belgium) and bloodstream form supporting factors).
The assay was performed in 96-well plates as previously described. The primary screening was repeated two times in triplicate at the concentrations of 50 nL/mL and 25 nL/mL (for 33 EOs) or 10 nL/mL and 5 nL/mL (for 4 EOs). Fifty µL of parasite culture (5 x 10^4 parasites/mL) was added with 50 µL of diluted EOs in each well. Ten µL of alamar blue (diluted with PBS at the ratio 1:1) was added to each well after 72 h of incubation and the plates were further incubated for 4 h. The fluorescence of the reduced reagent was measured on a spectrophotometer at 530 nm excitation and 590 nm emission wavelengths. Suramin was used as positive control. The EOs that inhibited more than 50% of the parasite growth at 25 or 10 nL/mL were analyzed for IC50 determination. Samples were tested in eight serial three-fold dilutions ranging from 50–0.02 nL/mL, except Cinnamomum cassia EO, Curcuma zedoaria EO, and Zingiber zerumbet EO (ranging from 10–0.005 nL/mL) and Dysphania ambrosioides EO (ranging from 5–0.002 nL/mL) in duplicate. IC50 values were calculated from dose response growth inhibition curves using Microsoft Excel files and mean IC50 values were obtained from at least three repetitions.

The nature of data set [2]: Cytotoxicity assay (MTT) on WI38. Format: cell-based. The note with it: human. The method, then: (§1) The human non-cancer fibroblast cell line WI38 (ATCC Number CCL-75 – Standards, UK) and macrophage-like murine cell line J774 (ECACC Number 91051511 – Public Health England, UK) were grown in DMEM and RPMI medium (Gibco-Thermo Fisher Scientific, Merelbeke, Belgium or Sigma-Aldrich, Bornem, Belgium), respectively, supplemented with 10% fetal bovine serum and penicillin-streptomycin (100 UI/mL) (Sigma-Aldrich, Bornem, Belgium).
(§2) The cytotoxicity assays were performed as described previously with concentrations ranging from 50 to 1.40 nL/mL (dilution of 1.67). The selectivity index (SI) values were calculated using the formula:SI = IC50 on mammalian cells/IC50 on protozoan parasites

A short description of data set [3]: Cytotoxicity assay (MTT) on J774. Format: cell-based, murine. As to conditions: mouse. As to the method: as §1, §2
The subject of data set [4] is CHO, WI38, Balb/3T3 fibroblast, and J774. Details: method as in PMID 24269775, PMID 27529211, PMID 16557466. The note with it: cited from earlier work.
Data set [5] concerns different human cancer cells. The note with it: cited from earlier work.
Where [6] appears, read: in Curcuma longa, pure compounds of C. longa EO, read-out: Anti-Trypanosomal Activity (IC50).
Setting [7] is: WI38 human non-cancer fibroblast cells, pure compounds of C. longa EO, read-out: Cytotoxicity (IC50) WI38.
The mark [8] stands for this setting: J774 macrophage-like murine cells, pure compounds of C. longa EO, read-out: Cytotoxicity (IC50) J774.
Setting [9] is: highest tested concentration 50 µg/mL.

≈ marks a conversion by molar mass, not a printed value. Like-named read-outs stand apart in the source and are kept apart here.

Data on 16 molecules can be found in paper PMC6471621, “Evaluation of the Anti-Trypanosomal Activity of Vietnamese Essential Oils, with Emphasis on Curcuma longa L. and Its Components” (Molecules, 2019).

`C=C1C2CCC(C2)C1(C)C` (stereo not drawn) [camphene]: the “Anti-trypanosomal IC50” value in the data set with Tbb bloodstream form (Tbb bloodstream form, ref 41) was 80.66 ± 0.87 µg/mL.
What is called IC50 is the concentration that gives 50% inhibition. In the case of `COc1cc(/C=C/C(=O)CC(=O)/C=C/c2ccc(O)c(OC)c2)ccc1O` [curcumin], in the data set with Trypanosoma brucei, the concentration for half-maximal inhibition (IC50) was about 5 µM.
`Cc1ccc(C(=O)Nc2ccc(S(=O)(=O)O)c3cc(S(=O)(=O)O)cc(S(=O)(=O)O)c23)cc1NC(=O)c1cccc(NC(=O)Nc2cccc(C(=O)Nc3cc(C(=O)Nc4ccc(S(=O)(=O)O)c5cc(S(=O)(=O)O)cc(S(=O)(=O)O)c45)ccc3C)c2)c1` [Suramin, reference compound]: the IC50 in data set [1] (positive control, read-out: Anti-Trypanosomal Activity (IC50)) amounted to 0.0215 ± 0.00262 µg/mL.
Regarding `C=C1C=CC(C(C)CC(=O)C=C(C)C)CC1` (stereo not drawn) [Curlone], the IC50 in data set [1] (setting [6]) was found to be 1.38 ± 0.52 µg/mL; in data set [1] (read-out: Anti-trypanosomal IC50), 6.32 µM; in data set [2] (setting [7]), 43.6 ± 2.45 µg/mL (≈ 200 µM); in data set [3] (setting [8]), 25.1 ± 3.47 µg/mL (≈ 115 µM). In data set [1] (compared to cytotoxicity on mammalian cells (WI38 and J774)), the “SI compared to cytotoxicity” value is over 10.
For `CC[C@@]1(O)C(=O)OCc2c1cc1n(c2=O)Cc2cc3ccccc3nc2-1` [Camptothecin, reference compound], the IC50 turned out to be 0.035 ± 0.00963 µg/mL (≈ 0.1 µM) in data set [2] (WI38 human non-cancer fibroblast cells, positive control, read-out: Cytotoxicity (IC50) WI38) and 0.00732 ± 0.00129 µg/mL (≈ 0.021 µM) in data set [3] (J774 macrophage-like murine cells, positive control, read-out: Cytotoxicity (IC50) J774).
Turning to `CC(C)=C1C/C=C(\C)CC/C=C(\C)CC1=O` [Germacrone], the “Anti-trypanosomal IC50” value in the data set on Tbb bloodstream form (Tbb bloodstream form, ref 32) was over 100 µg/mL.
`COc1cc(/C=C/C(O)=C/C(=O)/C=C/c2ccc(O)cc2)ccc1O` [demethoxycurcumin]: the IC50 in the data set on Trypanosoma brucei was 7.19 ± 1.02 µM.
In the case of `CC12CCC(CC1)C(C)(C)O2` [eucalyptol], the “Anti-trypanosomal IC50” value with Tbb bloodstream form (Tbb) was 83.15 µg/mL.
Regarding `O=C(/C=C/c1ccc(O)cc1)CC(=O)/C=C/c1ccc(O)cc1` [bisdemethoxycurcumin], the IC50 in the data set on Trypanosoma brucei was 9.84 ± 0.84 µM.
In the case of `C=CC(C)(O)CCC=C(C)C` (stereo not drawn) [linalool], the “Anti-trypanosomal IC50” value in the data set with Tbb bloodstream form (Tbb bloodstream form, ref 30) is on record as 2.5 µg/mL. For the same molecule, in data set [4] (highest tested concentration 100 µg/mL), the “Cytotoxicity at the highest tested concentration” value is listed as “did not show any cytotoxicity”.
With `CC(C)=CCCC(C)c1ccc(C)cc1` (stereo not drawn) [ar-Curcumene], the IC50 turned out to be 13.4 ± 2.46 µg/mL in data set [1] (setting [6]), 23.1 ± 1.36 µg/mL (≈ 114 µM) in data set [2] (setting [7]) and 24 ± 2.64 µg/mL (≈ 119 µM) in data set [3] (setting [8]).
As to `C=C1C=CC(C(C)CCC=C(C)C)CC1` (stereo not drawn) [β-Sesquiphellandrene], the IC50 in data set [1] (setting [6]) stood at 9.89 ± 1.18 µg/mL; in data set [2] (setting [7]) it was 19.1 ± 1.58 µg/mL (≈ 93.5 µM); in data set [3] (setting [8]), 21 ± 2.72 µg/mL (≈ 103 µM). Also, in data set [5] (at 5.10 µg/mL), the “Apoptotic effects (release of mitochondrial cytochrome c, activation of capase-3)” value is on record as “apoptotic effects”.
As for `CC(C)=CCC[C@@H](C)CC=O` [citronellal], the “Anti-trypanosomal IC50” value in the data set with Tbb bloodstream form (Tbb bloodstream form, ref 28) is 2.76 ± 1.55 µg/mL. Besides, the “Cytotoxicity at the highest tested concentration” value in data set [4] (setting [9]) is “did not show any cytotoxicity”.
Consider `CC(C)=CCCC(C)CCO` (stereo not drawn) [citronellol], for which, in the data set on Tbb bloodstream form (Tbb bloodstream form, ref 28), the “Anti-trypanosomal IC50” value is reported as 6.45 ± 4.86 µg/mL. Also, the “Cytotoxicity at the highest tested concentration” value in data set [4] (setting [9]) is listed as “did not show any cytotoxicity”.
For the molecule `C=C(C)[C@H]1CC=C(C)CC1` [limonene], the “Anti-trypanosomal IC50” value in the data set with Tbb bloodstream form (Tbb bloodstream form, ref 28) is 4.24 ± 1.27 µg/mL; in the data set with Tbb bloodstream form (Tbb bloodstream form, ref 29), 5.6 ± 1.6 µg/mL.
For `CC(C)=CC(=O)CC(C)c1ccc(C)cc1` (stereo not drawn) [ar-Turmerone], the results for the half-inhibitory concentration (IC50) in data set [1] (setting [6]), in data set [2] and in data set [3] were 28.8 ± 3.93 µg/mL, 43.4 ± 3.89 µg/mL (≈ 201 µM) and 44.6 ± 1.41 µg/mL (≈ 206 µM), respectively. In addition, the “Apoptotic effects (release of mitochondrial cytochrome c, activation of capase-3)” value in data set [5] (at 40, 80, and 120 µg/mL) is listed as “apoptotic effects”.
